According to patent US7476672B2, “Acetylenic compounds useful in treating inflammatory disorders” (Janssen Pharmaceutica N.V., priority 2002, dated 2009):
Like-named read-outs stand apart in the source and are kept apart here. One block for each molecule: values may come before it.

Legend:
NADPH-oxidase = molecular target: T1, NADPH-oxidase (Homo sapiens, UniProt P04839); experiment: Oxidase Inhibition Assay (PMA-stimulated superoxide-mediated reduction of Cytochrome c, whole cells); assay type: cell-based
T1 construct: endogenous in cells; host or cells: human neutrophils isolated from buffy coat
T1 sequence (P04839 1-570): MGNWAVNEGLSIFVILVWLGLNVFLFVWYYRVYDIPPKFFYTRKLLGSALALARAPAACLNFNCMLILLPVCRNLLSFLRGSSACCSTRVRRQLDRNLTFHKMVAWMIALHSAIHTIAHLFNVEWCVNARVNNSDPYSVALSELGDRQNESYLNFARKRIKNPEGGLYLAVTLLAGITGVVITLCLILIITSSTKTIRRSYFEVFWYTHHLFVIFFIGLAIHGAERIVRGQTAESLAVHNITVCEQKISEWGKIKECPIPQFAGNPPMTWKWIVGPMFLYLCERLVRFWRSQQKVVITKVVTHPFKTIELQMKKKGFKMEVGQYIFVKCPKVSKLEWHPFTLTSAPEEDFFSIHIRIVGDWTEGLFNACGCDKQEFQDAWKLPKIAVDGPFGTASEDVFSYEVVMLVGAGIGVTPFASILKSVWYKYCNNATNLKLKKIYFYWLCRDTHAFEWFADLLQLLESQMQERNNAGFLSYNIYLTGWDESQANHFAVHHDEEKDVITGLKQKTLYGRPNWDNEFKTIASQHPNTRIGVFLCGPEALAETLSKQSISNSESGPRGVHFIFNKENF
Method: Whole cells (human neutrophils) are incubated with a pro-inflammatory agonist phorbol myristate acetate (PMA) in the presence or absence of test compound to measure the superoxide-mediated reduction of Cytochrome c at 550 nm. Inhibition of the oxidase is determined by a decreased absorbance at 550 nm, in response to test compound, relative to the absorbance seen with a vehicle control.
The buffy coat from one unit of blood is split evenly into four 50 mL tubes. To each tube 30 mL 3% Dextran (in 0.9% NaCl) is added and the tubes are inverted to mix. Tubes are allowed to sit undisturbed for 25 minutes. The resulting supernatant is recovered into four fresh tubes and centrifuged for 10 minutes at 600×g, 4° C. The supernatant is discarded and pellets are resuspended in 35 mL 0.9% saline. 10 mL Ficoll-Paque PLUS (Pharmacia Biotech AB) is layered beneath the cell suspension and centrifuged at 600×g for 40 minutes at room temperature. The supernatant is again discarded and tubes are tapped to loosen the resulting pellets. 20 mL 0.2% ice cold saline is added for 30 seconds followed by 20 mL 1.6% ice cold saline to lyse the remaining erythrocytes in the pellets. The pellets are centrifuged for 10 minutes at 600×g, 4° C., and the supernatant is discarded. The neutrophil pellets are resuspended in HBSS-glucose buffer (1 mg/mL), adding 2.5 mL to each tube for a total volume of 10 mL. The cell suspension is then counted on a hemocytometer.
The cell suspension is diluted to a concentration of 5×10^6/mL in HBSS-glucose and treated with 1 μg/mL Cytochalasin B (5 mg/mL DMSO) for 10 minutes at 37° C. in a shaking water bath. Cells are diluted to 6×10^5 cells/mL in 92 μM Cytochrome C for a final concentration of 5×10^4 cells/well.
The NADPH-oxidase assay is run on a Biomek 2000 workstation. The workstation adds 2.5 μL compound per well from source plates plus 12.5 μL per well 4 μM PMA (agonist). This volume is brought up to 100 μL total per well in the assay plates upon the addition of the prepared cells (85 μL). The final concentration of drug is 25 μM and PMA is 0.5 μM under these conditions.
The QC curve is a dose-response curve (from about 31.25 nM to about 4000 nM) for competitive binding against a known oxidase inhibitor such as DPI (diphenylene iodonium chloride). The format used for each compound tested is as follows:
The plates are incubated for 1 hour at 37° C. without CO2. The plates are then incubated at room temperature for 30 minutes and the absorbance is read at 550 nm.

[1] = test system: potassium peroxochromate arthritis; details: mice, cited from earlier work
[2] = test system: reactive oxygen species (ROS); details: human patients with rheumatoid arthritis and osteoarthritis, pharmacological doses; cited from earlier work

SMILES: c1ccc2c(c1)[I+]c1ccccc1-2 [DPI, diphenylene iodoniumchloride]
inhibition at 10 µM (NADPH-oxidase; QC wells G-H, 2.5 μL of 10 μM DPI, at 250 nm (so in the source), agonist added): ~70% | inhibition of the arthritis ([1]; 10 mmol/kg): Complete inhibition | inhibition of the arthritis ([1]; daily doses of 2.8 μmol/kg): 50%

SMILES: CN1C(C(=O)Nc2ccccn2)=C(O)c2ccccc2S1(=O)=O [Piroxicam]
reduction of levels of ROS [2]: 25%

IC50 (NADPH-oxidase; human neutrophils, PMA 0.5 μM, absorbance at 550 nm): 1000 nM | melting point: 251 to 254 °C
SMILES: Cc1cc(C#Cc2ccc(Cl)cc2)ccc1OCCNCc1ccc(CNCCC2CCCN2C)cc1 (stereo not drawn) [Compound 13, N^1-[2-[4-[(4-chlorophenyl)ethynyl]-2-methylphenoxy]ethyl]-N^4-[2-(1-methyl-2-pyrrolidinyl)ethyl]-1,4-benzenedimethanamine]
